Experiments:
SHV-5 = biological target: T1, SHV-5 (Klebsiella pneumoniae, UniProt P0A3M1); assay: β-lactamase enzyme inhibition assay, SHV-5 (cefotaxime substrate); assay type: biochemical
T1 construct: made in house; host or cells: E. coli BL21(DE3)
Summary of the method: (§1)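 IC50 is the inhibitor level cutting initial substrate hydrolysis rate by 50% relative to no-inhibitor controls, after 15 min enzyme–inhibitor preincubation at 37 °C. KPC-2 read with imipenem at 300 nm, SHV-5 with cefotaxime at 260 nm; enzymes were untagged, E. coli-expressed, chromatographically purified.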

KPC-2 = biological target: T2, KPC-2 (Klebsiella pneumoniae, UniProt Q9F663); assay: β-lactamase enzyme inhibition assay, KPC-2 (imipenem substrate); assay type: biochemical; details: Class A; imipenem substrate, 300 nm; read-out: KPC-2
T2 construct: made in house; host or cells: E. coli BL21(DE3)
Summary of the method: as §1

VIM-2 = biological target: T3, VIM-2 (Escherichia coli, UniProt Q5U7L7); assay: β-lactamase enzyme inhibition assay, VIM-2 (nitrocefin substrate); assay type: biochemical; details: Class B; nitrocefin substrate, 486 nm; read-out: VIM-2
T3 construct: made in house; host or cells: E. coli BL21(DE3)
Summary of the method: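 Nitrocefin hydrolysis (100 μM final, A486 read for 10 min) by purified VIM-2 after a 15-min, 37° C enzyme–inhibitor preincubation. IC50 is the concentration halving initial hydrolysis rate, derived from percent inhibition against no-inhibitor wells.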

AmpC = biological target: T4, AmpC (Enterobacter cloacae, UniProt P05364); assay: β-lactamase enzyme inhibition assay, p99 AmpC (nitrocefin substrate); assay type: biochemical
T4 construct: made in house; host or cells: E. coli BL21(DE3)
Summary of the method: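 IC50 is the inhibitor level cutting initial substrate hydrolysis rate by 50% relative to no-inhibitor controls, after 15 min enzyme–inhibitor preincubation at 37 °C. enzymes were untagged, E. coli-expressed, chromatographically purified.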

OXA-48 = OXA-48 (UniProt Q6XEC0); assay: β-lactamase enzyme inhibition assay, Class D oxacillinase; assay type: biochemical; details: read-out: OXA-48
[1] = test system: E. coli expressing the Class A Extended Spectrum Beta-Lactamase (ESBL) CTX-M-15; assay: Broth microdilution MIC assay with ceftazidime, E. coli CTX-M-15; assay type: cell-based; details: Fixed CAZ (ceftazidime) 4 μg/mL; E. coli ESBL4 CTX-M-15
Summary of the method: (§2)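 CLSI broth microdilution in cation-adjusted Mueller Hinton broth measured growth of β-lactamase-expressing strains, grown 3-5 h beforehand. The β-lactam partner was held at 4 μg/ml final while test compound was titrated 2-fold from 16 to 0.125 μg/mL final. After 16-20 h at 37° C, the compound MIC was determined by eye.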

[2] = test system: E. cloacae expressing the Class C P99; assay: Broth microdilution MIC assay with ceftazidime, E. cloacae P99; assay type: cell-based; details: Fixed CAZ (ceftazidime) 4 μg/mL; E. cl. 144200 p99 AmpC
Summary of the method: as §2

[3] = test system: K. pneumoniae expressing the Class A carbapenemase KPC-2; assay: Broth microdilution MIC assay with meropenem, K. pneumoniae KPC-2; assay type: cell-based; details: Fixed Mero (meropenem) 4 μg/mL; K. p. 156319 KPC-3
Summary of the method: as §2

[4] = test system: P. aeruginosa expressing the Class B carbapenemase VIM-2; assay: Broth microdilution MIC assay with meropenem, P. aeruginosa VIM-2; assay type: cell-based; details: Fixed Mero (meropenem) 4 μg/mL; P. aerug. 2775 VIM-2
Summary of the method: as §2

[5] = test system: K. pneumoniae expressing the class A carbapenemase KPC-2 and the class B carbapenemase VIM-4; assay: Broth microdilution MIC assay with meropenem, K. pneumoniae KPC-2 and VIM-4; assay type: cell-based; details: Fixed Mero (meropenem) 4 μg/mL; K. p. A-1797 KPC-2 VIM-4
Summary of the method: as §2

[6] = test system: K. pneumoniae producing the Class D carbapenemase OXA-48; assay: Broth microdilution MIC assay with meropenem, K. pneumoniae OXA-48; assay type: cell-based; details: Fixed Mero (meropenem) 4 μg/mL; K. p. 11978 OXA-48
Summary of the method: as §2

T1 sequence (P0A3M1 22-286): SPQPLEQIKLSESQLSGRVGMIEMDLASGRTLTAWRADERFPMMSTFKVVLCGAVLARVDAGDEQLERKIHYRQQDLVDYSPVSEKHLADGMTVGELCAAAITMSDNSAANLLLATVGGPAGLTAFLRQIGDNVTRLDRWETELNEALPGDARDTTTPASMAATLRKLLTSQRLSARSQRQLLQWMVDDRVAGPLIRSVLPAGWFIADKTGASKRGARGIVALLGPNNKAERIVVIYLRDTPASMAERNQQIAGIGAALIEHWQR
T2 sequence (Q9F663 25-293, looked up): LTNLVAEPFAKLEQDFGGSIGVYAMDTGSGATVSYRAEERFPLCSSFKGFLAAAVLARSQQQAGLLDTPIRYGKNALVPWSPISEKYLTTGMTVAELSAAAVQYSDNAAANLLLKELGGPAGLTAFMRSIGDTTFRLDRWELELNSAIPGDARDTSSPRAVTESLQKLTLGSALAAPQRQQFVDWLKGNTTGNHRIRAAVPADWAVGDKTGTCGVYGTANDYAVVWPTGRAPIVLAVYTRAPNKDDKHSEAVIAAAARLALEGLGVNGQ
T4 sequence (P05364 21-381): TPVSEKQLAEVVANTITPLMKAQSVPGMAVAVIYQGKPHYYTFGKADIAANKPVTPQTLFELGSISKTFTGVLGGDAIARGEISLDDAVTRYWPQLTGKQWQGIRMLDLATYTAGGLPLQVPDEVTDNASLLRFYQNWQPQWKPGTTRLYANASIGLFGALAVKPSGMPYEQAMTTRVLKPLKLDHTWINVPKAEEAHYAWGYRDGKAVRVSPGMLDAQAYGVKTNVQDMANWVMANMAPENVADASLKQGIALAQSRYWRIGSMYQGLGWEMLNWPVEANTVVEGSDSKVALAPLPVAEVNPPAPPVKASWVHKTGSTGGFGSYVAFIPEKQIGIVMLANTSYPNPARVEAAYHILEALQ

| Compound | IC50 (SHV-5) [nM] | IC50 (KPC-2) [nM] | IC50 (VIM-2) [nM] | IC50 (AmpC) [nM] | IC50 (OXA-48) [nM] | MIC (μg/mL) of Exemplary Compounds in presence of fixed β-lactams: E. coli ESBL4 CTX-M-15 [1] | MIC (μg/mL) of Exemplary Compounds in presence of fixed β-lactams: E. cl. 144200 p99 AmpC [2] | MIC (μg/mL) of Exemplary Compounds in presence of fixed β-lactams: K. p. 156319 KPC-3 [3] | MIC (μg/mL) of Exemplary Compounds in presence of fixed β-lactams: P. aerug. 2775 VIM-2 [4] | MIC (μg/mL) of Exemplary Compounds in presence of fixed β-lactams: K. p. A-1797 KPC-2 VIM-4 [5] | MIC (μg/mL) of Exemplary Compounds in presence of fixed β-lactams: K. p. 11978 OXA-48 [6] |
| --- | --- | --- | --- | --- | --- | --- | --- | --- | --- | --- | --- |
| Nc1nc(=O)c(Cc2cn(CC(=O)N[C@H]3Cc4cccc(C(=O)O)c4OB3O)nn2)c(N)[nH]1 [Example 64, (R)-3-(2-(4-((2,6-diamino-4-oxo-1,4-dihydropyrimidin-5-yl)methyl)-1H-1,2,3-triazol-1-yl)acetamido)-2-hydroxy-3,4-dihydro-2H-benzo[e][1,2]oxaborinine-8-carboxylic acid] | < 100 | < 100 | 100 to 1000 | < 100 | < 100 | C (C represents an MIC of <1 μg/mL) | C (C represents an MIC of <1 μg/mL) | C (C represents an MIC of <1 μg/mL) | B (B represents an MIC between 1 and 16 μg/mL inclusive) | B (B represents an MIC between 1 and 16 μg/mL inclusive) | B (B represents an MIC between 1 and 16 μg/mL inclusive) |
| NCCCNC(=O)c1cn(CC(=O)N[C@H]2Cc3cccc(C(=O)O)c3OB2O)nn1 [Example 65, (R)-3-(2-(4-((3-aminopropyl)carbamoyl)-1H-1,2,3-triazol-1-yl)acetamido)-2-hydroxy-3,4-dihydro-2H-benzo[e][1,2]oxaborinine-8-carboxylic acid] | < 100 | < 100 | < 100 | < 100 | 100 to 1000 | C (C represents an MIC of <1 μg/mL) | C (C represents an MIC of <1 μg/mL) | C (C represents an MIC of <1 μg/mL) | B (B represents an MIC between 1 and 16 μg/mL inclusive) | B (B represents an MIC between 1 and 16 μg/mL inclusive) | B (B represents an MIC between 1 and 16 μg/mL inclusive) |
| N[C@H]1CCN(C(=O)c2cn(CC(=O)N[C@H]3Cc4cccc(C(=O)O)c4OB3O)nn2)C1 [Example 66, (R)-3-(2-(4-((S)-3-aminopyrrolidine-1-carbonyl)-1H-1,2,3-triazol-1-yl)acetamido)-2-hydroxy-3,4-dihydro-2H-benzo[e][1,2]oxaborinine-8-carboxylic acid] | < 100 | < 100 | < 100 | < 100 | 100 to 1000 | C (C represents an MIC of <1 μg/mL) | C (C represents an MIC of <1 μg/mL) | C (C represents an MIC of <1 μg/mL) | C (C represents an MIC of <1 μg/mL) | B (B represents an MIC between 1 and 16 μg/mL inclusive) | B (B represents an MIC between 1 and 16 μg/mL inclusive) |
| NCc1nnc(CC(=O)N[C@H]2Cc3cccc(C(=O)O)c3OB2O)s1 [Example 67, (R)-3-(2-(5-(aminomethyl)-1,3,4-thiadiazol-2-yl)acetamido)-2-hydroxy-3,4-dihydro-2H-benzo[e][1,2]oxaborinine-8-carboxylic acid] | < 100 | < 100 | 100 to 1000 | < 100 | 100 to 1000 | C (C represents an MIC of <1 μg/mL) | C (C represents an MIC of <1 μg/mL) | B (B represents an MIC between 1 and 16 μg/mL inclusive) | C (C represents an MIC of <1 μg/mL) | B (B represents an MIC between 1 and 16 μg/mL inclusive) | B (B represents an MIC between 1 and 16 μg/mL inclusive) |
